{"source": "patent US20120128784A1", "about": "“COMPOSITION CONTAINING BEE VENOM AS AN ACTIVE INGREDIENT FOR PREVENTING AND TREATING ACNE” (Dong Sung Pharm. Co., Ltd., priority 2009, published 2012)", "origin": "cited, not measured here", "test_system": "edema", "settings": "injected into arthritis patients"}
{"smiles": "CC[C@H](C)[C@H](NC(=O)CN)C(=O)NCC(=O)N[C@@H](C)C(=O)N[C@H](C(=O)N[C@@H](CC(C)C)C(=O)N[C@@H](CCCCN)C(=O)N[C@H](C(=O)N[C@@H](CC(C)C)C(=O)N[C@H](C(=O)N[C@H](C(=O)NCC(=O)N[C@@H](CC(C)C)C(=O)N1CCC[C@H]1C(=O)N[C@@H](C)C(=O)N[C@@H](CC(C)C)C(=O)N[C@H](C(=O)N[C@@H](CO)C(=O)N[C@@H](Cc1c[nH]c2ccccc12)C(=O)N[C@H](C(=O)N[C@@H](CCCCN)C(=O)N[C@@H](CCCNC(=N)N)C(=O)N[C@@H](CCCCN)C(=O)N[C@@H](CCCNC(=N)N)C(=O)N[C@@H](CCC(N)=O)C(=O)N[C@@H](CCC(N)=O)C(N)=O)[C@@H](C)CC)[C@@H](C)CC)[C@@H](C)O)[C@@H](C)O)C(C)C)C(C)C", "note": "[melittin]", "values": [{"measurement": "inhibition of edema", "result": "edema was significantly inhibited"}]}
